According to ChEMBL document CHEMBL2390873, “Rational design, synthesis and QSAR study of vasorelaxant active 3-pyridinecarbonitriles incorporating 1H-benzimidazol-2-yl function” (Eur J Med Chem, 2013):

Test system: Aorta
Assay: Vasorelaxant activity in Wister rat isolated thoracic aortic rings assessed as reduction of norepinephrine hydrochloride-induced contraction
Assay type: functional, tissue-based

Point of comparison: `CCOc1nc(-c2nc3ccccc3n2C)cc(-c2ccc(C)o2)c1C#N`, IC50 336 µM. Against it:
- COc1nc(-c2nc3ccccc3n2C)cc(-c2cccs2)c1C#N — within 1.5-fold, 312 µM
- CCOc1nc(-c2nc3ccccc3n2C)cc(-c2ccccc2)c1C#N — within 1.5-fold, 364 µM
- COc1nc(-c2nc3ccccc3n2C)cc(-c2ccc(C)o2)c1C#N — within 1.5-fold, 283 µM
- COc1nc(-c2nc3ccccc3[nH]2)cc(-c2ccc(Cl)cc2)c1C#N — within 1.5-fold, 286 µM
- CCOc1nc(-c2nc3ccccc3n2C)cc(-c2ccc(F)cc2)c1C#N — within 1.5-fold, 362 µM
- CCOc1nc(-c2nc3ccccc3n2C)cc(-c2ccc(Cl)cc2Cl)c1C#N — within 1.5-fold, 305 µM
- COc1nc(-c2nc3ccccc3n2C)cc(-c2ccc(Cl)cc2)c1C#N — 2.3-fold lower, 145 µM
- CCOc1nc(-c2nc3ccccc3n2C)cc(-c2cccs2)c1C#N — within 1.5-fold, 249 µM
- COc1ccc(-c2cc(-c3nc4ccccc4n3C)nc(OC)c2C#N)cc1 — 1.6-fold lower, 210 µM
- COc1nc(-c2nc3ccccc3n2C)cc(-c2ccc(F)cc2)c1C#N — within 1.5-fold, 343 µM
- COc1nc(-c2nc3ccccc3n2C)cc(-c2ccc(Cl)cc2Cl)c1C#N — 1.6-fold lower, 214 µM
- COc1nc(-c2nc3ccccc3[nH]2)cc(-c2ccc(C)o2)c1C#N — 1.7-fold lower, 202 µM
- CCOc1nc(-c2nc3ccccc3n2C)cc(-c2ccc(OC)cc2)c1C#N — within 1.5-fold, 436 µM
- COc1nc(-c2nc3ccccc3n2C)cc(-c2ccc(C)cc2)c1C#N — within 1.5-fold, 295 µM
- CCOc1nc(-c2nc3ccccc3n2C)cc(-c2ccc(Cl)cc2)c1C#N — within 1.5-fold, 293 µM
- CCOc1nc(-c2nc3ccccc3n2C)cc(-c2ccc(C)cc2)c1C#N — within 1.5-fold, 400 µM
- COc1nc(-c2nc3ccccc3n2C)cc(-c2ccccc2)c1C#N — within 1.5-fold, 300 µM
